Source: patent publication US20260295038A1, “GLYCOLIPID DERIVATIVE AS MINCLE LIGAND” (priority 2023, published 2026)

Molecular target: T1, bovine Mincle (Bos taurus, UniProt E1BHM0)
T1 construct: mouse T-cell hybridoma with FcRgamma), plate assay
T1 sequence (E1BHM0 1-211): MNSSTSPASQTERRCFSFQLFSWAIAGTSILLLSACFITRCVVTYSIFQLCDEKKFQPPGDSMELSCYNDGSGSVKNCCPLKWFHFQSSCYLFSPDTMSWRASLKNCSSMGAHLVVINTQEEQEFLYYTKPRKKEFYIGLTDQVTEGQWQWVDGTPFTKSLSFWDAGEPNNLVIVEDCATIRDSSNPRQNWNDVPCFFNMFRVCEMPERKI
Assay: Mincle ligand activity, NFAT-GFP reporter cells expressing bovine Mincle (Experimental Example 1)
Assay type: cell-based
Conditions: 0.03 to 3 nmol, FIG. 1 right
Description: Similarly, using NFAT-GFP reporter cells expressing bovine Mincle, prepared according to the method described in a literature (Yamasaki, S. et al, Nat Immunol 9, 1179-88(2008)), the ligand activity of HD-276 was evaluated on a 96-well plate. The doses of the test compounds (horizontal axis) were 0.03 to 3 (nmol) from the left to right.

With CCCCCCc1ccc(O[C@@H]2OC(C)[C@H](O)[C@H](OC)C2O[C@@H]2OC(C)[C@H](O[C@@H]3OC(COC)[C@@H](O)C(O)[C@@H]3O)[C@H](OC)C2OC)cc1 (stereo in doubt) [HD-276] the Mincle ligand activity was “confirmed to have Mincle ligand activity”.
